Data from ChEMBL document CHEMBL5291721, “A preclinical secondary pharmacology resource illuminates target-adverse drug reaction associations of marketed drugs” (Nat Commun, 2023).

Assays:
D(3) dopamine receptor = D(3) dopamine receptor (Homo sapiens, UniProt P35462)
[1] = molecular target: 5-hydroxytryptamine receptor 2B (Homo sapiens, UniProt P41595); type: functional, cell-based
[2] = molecular target: cGMP-inhibited 3',5'-cyclic phosphodiesterase 3A (Homo sapiens, UniProt Q14432); type: functional
[3] = molecular target: Sodium-dependent dopamine transporter (Homo sapiens, UniProt Q01959)
[4] = molecular target: Sodium-dependent serotonin transporter (Homo sapiens, UniProt P31645)
[5] = molecular target: T1, Muscarinic acetylcholine receptor M2 (Homo sapiens, UniProt P08172); type: functional, cell-based
T1 sequence (P08172 whole entry): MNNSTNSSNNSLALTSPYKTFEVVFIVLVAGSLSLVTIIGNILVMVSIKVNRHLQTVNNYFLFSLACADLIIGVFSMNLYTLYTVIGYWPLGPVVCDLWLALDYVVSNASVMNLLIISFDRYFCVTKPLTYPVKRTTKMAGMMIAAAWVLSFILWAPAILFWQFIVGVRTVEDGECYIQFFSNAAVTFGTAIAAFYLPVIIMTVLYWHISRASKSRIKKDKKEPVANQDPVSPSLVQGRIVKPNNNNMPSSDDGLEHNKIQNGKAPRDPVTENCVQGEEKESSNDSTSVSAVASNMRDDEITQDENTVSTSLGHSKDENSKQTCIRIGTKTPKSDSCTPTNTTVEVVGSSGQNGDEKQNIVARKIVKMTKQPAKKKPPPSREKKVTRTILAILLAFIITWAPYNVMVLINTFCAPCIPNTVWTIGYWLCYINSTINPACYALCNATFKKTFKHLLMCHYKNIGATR

Cannabinoid receptor 1 = Cannabinoid receptor 1 (Homo sapiens, UniProt P21554); type: functional, cell-based
[6] = molecular target: Gamma-aminobutyric acid receptor subunit alpha-1/alpha-2/beta-2/gamma-2 (Homo sapiens, UniProt P14867+P18507+P47869+P47870); type: functional, cell-based
[7] = molecular target: T2, Neuropeptide Y receptor type 1 (Homo sapiens, UniProt P25929)
T2 sequence (P25929 whole entry): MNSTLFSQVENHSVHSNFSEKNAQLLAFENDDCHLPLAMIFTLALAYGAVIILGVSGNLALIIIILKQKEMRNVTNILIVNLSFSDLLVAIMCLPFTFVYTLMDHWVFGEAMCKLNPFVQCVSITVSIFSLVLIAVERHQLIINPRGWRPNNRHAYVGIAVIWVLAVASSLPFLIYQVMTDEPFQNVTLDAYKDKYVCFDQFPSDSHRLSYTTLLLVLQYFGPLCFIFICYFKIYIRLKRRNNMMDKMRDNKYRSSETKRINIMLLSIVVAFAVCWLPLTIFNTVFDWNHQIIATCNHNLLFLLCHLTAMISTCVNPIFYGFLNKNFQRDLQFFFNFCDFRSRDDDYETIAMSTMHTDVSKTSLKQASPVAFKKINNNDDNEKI

[8] = molecular target: Kappa-type opioid receptor (Homo sapiens, UniProt P41145)
[9] = molecular target: T3, Muscarinic acetylcholine receptor M1 (Homo sapiens, UniProt P11229); type: functional
T3 sequence (P11229 whole entry): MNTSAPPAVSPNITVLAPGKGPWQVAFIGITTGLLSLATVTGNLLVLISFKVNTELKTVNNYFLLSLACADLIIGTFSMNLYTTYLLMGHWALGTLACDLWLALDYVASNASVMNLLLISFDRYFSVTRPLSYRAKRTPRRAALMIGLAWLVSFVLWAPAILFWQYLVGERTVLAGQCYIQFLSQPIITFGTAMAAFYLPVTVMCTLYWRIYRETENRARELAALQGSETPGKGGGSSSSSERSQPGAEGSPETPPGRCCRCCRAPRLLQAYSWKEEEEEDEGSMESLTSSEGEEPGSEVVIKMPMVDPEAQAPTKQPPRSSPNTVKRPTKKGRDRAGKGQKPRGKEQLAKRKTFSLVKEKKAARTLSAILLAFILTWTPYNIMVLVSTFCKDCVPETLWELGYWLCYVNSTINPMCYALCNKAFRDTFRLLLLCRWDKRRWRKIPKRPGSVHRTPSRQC

[10] = molecular target: Beta-2 adrenergic receptor (Homo sapiens, UniProt P07550)
Mu-type opioid receptor = Mu-type opioid receptor (Homo sapiens, UniProt P35372)
Note: assay procedure not described here.

Sodium-dependent serotonin transporter, sequence (P31645 whole entry): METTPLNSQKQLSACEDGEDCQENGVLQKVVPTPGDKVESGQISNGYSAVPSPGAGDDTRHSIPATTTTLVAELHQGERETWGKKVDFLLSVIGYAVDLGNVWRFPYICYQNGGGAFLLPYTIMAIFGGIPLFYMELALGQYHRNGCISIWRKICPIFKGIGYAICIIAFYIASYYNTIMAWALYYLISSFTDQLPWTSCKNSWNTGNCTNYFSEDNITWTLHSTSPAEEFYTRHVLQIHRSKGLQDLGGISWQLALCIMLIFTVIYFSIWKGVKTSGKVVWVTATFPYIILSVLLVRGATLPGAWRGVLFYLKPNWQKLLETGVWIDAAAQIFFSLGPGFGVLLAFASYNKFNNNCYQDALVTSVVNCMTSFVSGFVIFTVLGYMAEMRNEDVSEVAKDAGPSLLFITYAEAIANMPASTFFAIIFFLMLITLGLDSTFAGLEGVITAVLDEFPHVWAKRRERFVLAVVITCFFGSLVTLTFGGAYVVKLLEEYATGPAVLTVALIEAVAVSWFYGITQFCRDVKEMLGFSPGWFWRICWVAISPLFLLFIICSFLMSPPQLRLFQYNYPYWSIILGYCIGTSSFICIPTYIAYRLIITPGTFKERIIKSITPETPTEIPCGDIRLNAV
Kappa-type opioid receptor, sequence (P41145 whole entry): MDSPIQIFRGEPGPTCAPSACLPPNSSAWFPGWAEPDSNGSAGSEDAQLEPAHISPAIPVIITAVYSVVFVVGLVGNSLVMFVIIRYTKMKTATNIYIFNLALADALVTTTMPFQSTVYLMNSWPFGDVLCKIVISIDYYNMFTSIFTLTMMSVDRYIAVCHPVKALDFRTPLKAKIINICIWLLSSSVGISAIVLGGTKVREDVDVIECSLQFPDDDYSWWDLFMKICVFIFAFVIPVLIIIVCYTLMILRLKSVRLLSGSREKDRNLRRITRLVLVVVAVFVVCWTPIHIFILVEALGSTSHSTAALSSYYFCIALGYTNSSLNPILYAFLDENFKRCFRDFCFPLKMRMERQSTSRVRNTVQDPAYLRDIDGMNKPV
cGMP-inhibited 3',5'-cyclic phosphodiesterase 3A, sequence (Q14432 whole entry): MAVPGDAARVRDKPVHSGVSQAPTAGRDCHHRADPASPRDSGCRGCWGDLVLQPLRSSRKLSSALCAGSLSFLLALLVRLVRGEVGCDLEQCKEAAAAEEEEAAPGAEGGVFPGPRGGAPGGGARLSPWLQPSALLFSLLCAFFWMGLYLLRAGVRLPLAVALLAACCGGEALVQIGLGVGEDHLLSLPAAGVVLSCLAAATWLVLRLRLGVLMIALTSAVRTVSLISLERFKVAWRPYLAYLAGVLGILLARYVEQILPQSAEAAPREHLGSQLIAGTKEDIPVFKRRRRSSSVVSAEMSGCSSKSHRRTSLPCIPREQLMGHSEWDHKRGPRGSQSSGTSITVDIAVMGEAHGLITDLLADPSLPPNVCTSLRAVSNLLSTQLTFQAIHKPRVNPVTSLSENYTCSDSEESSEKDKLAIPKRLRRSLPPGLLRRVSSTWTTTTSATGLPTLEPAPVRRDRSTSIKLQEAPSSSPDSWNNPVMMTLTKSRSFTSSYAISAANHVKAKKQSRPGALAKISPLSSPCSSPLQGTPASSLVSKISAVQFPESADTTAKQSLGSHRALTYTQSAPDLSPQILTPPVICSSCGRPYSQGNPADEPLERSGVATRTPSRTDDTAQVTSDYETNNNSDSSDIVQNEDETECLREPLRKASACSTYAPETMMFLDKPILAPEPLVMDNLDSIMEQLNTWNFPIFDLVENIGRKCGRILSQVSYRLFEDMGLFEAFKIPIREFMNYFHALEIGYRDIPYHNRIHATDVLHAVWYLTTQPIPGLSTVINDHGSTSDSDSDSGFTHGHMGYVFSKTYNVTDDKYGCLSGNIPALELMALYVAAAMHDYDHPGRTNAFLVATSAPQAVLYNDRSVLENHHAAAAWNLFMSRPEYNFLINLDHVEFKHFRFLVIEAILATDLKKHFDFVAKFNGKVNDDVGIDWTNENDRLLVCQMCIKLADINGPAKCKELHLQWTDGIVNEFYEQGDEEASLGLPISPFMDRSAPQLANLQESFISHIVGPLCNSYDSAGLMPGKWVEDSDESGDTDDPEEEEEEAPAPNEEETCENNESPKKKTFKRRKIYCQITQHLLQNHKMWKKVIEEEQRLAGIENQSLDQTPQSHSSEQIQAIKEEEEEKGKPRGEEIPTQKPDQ
5-hydroxytryptamine receptor 2B, sequence (P41595 whole entry): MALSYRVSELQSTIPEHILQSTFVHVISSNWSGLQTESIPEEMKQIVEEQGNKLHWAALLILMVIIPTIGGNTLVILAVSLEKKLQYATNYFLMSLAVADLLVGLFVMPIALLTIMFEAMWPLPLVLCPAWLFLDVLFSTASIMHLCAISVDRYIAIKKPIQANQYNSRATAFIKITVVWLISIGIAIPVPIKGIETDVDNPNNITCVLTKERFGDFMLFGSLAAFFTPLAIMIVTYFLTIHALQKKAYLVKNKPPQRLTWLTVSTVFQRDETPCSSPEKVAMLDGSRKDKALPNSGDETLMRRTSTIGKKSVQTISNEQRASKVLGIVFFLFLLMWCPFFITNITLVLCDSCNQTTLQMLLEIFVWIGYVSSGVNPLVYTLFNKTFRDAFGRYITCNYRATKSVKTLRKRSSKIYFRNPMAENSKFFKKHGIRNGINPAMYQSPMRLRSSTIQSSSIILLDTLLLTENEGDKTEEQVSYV
Cannabinoid receptor 1, sequence (P21554 whole entry): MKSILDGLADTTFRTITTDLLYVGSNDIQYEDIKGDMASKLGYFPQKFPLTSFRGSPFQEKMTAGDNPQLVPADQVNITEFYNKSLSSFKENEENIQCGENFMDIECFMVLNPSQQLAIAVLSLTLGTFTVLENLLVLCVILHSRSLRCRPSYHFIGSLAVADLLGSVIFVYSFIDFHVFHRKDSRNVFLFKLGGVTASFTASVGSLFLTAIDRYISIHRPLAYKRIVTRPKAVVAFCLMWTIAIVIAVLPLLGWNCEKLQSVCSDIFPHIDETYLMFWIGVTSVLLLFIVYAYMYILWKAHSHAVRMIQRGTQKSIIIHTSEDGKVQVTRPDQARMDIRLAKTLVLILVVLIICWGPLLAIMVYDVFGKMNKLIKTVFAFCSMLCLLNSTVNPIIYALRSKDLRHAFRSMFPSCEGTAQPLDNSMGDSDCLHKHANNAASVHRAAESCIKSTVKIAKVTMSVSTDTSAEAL
Gamma-aminobutyric acid receptor subunit alpha-1/alpha-2/beta-2/gamma-2, sequence (P14867 whole entry): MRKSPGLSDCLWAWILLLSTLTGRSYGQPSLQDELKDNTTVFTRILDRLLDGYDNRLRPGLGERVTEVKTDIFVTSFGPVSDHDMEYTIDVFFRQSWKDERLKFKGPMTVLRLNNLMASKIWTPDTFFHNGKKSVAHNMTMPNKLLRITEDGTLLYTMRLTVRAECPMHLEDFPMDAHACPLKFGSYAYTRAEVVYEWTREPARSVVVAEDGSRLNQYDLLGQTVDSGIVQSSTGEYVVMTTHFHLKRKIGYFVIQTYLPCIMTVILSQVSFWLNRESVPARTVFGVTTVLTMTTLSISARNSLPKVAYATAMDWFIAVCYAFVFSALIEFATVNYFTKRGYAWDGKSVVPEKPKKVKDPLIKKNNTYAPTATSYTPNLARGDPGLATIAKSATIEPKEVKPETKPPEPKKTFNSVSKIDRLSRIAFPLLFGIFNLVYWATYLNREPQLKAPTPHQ
Gamma-aminobutyric acid receptor subunit alpha-1/alpha-2/beta-2/gamma-2, sequence (P47870 whole entry): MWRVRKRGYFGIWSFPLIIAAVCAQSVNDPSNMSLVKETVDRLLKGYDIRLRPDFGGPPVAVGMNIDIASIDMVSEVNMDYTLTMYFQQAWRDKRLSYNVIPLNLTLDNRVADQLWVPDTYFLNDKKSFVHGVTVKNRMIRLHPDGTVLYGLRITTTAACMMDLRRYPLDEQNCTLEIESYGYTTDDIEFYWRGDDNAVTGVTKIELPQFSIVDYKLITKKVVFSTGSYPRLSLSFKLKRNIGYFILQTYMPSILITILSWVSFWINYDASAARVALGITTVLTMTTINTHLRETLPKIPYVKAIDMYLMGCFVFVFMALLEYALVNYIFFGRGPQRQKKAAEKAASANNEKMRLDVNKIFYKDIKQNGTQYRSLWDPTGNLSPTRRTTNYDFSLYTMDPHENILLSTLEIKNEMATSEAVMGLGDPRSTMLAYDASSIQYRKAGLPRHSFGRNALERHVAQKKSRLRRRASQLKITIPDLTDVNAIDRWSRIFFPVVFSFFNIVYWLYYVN
Gamma-aminobutyric acid receptor subunit alpha-1/alpha-2/beta-2/gamma-2, sequence (P18507 whole entry): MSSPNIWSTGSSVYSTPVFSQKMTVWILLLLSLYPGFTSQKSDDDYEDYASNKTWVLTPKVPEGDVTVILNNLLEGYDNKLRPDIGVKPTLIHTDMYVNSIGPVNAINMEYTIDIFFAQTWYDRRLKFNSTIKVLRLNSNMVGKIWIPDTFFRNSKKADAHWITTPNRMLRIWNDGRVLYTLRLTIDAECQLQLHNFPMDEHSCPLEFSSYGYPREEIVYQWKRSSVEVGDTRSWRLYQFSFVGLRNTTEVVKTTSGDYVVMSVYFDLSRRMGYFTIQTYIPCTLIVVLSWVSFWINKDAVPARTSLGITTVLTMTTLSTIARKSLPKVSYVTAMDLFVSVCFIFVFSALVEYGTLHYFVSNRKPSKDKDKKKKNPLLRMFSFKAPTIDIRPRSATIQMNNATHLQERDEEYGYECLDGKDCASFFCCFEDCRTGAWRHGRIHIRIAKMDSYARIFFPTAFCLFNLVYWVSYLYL
Gamma-aminobutyric acid receptor subunit alpha-1/alpha-2/beta-2/gamma-2, sequence (P47869 whole entry): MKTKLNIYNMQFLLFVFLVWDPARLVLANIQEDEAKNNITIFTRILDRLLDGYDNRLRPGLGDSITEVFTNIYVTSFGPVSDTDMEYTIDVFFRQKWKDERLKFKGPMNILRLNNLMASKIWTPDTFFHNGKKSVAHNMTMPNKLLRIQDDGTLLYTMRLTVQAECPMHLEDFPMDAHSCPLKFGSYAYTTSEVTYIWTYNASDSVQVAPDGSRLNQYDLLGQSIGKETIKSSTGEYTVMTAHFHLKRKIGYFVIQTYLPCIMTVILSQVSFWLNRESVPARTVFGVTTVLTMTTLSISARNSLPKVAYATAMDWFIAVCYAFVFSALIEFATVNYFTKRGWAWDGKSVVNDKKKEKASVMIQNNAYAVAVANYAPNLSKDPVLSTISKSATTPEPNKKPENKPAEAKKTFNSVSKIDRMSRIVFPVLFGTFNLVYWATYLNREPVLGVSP

CO[C@@]1(NC(=O)C(C(=O)O)c2ccc(O)cc2)C(=O)N2C(C(=O)O)=C(CSc3nnnn3C)CO[C@@H]21 (some centres undefined) [MOXALACTAM]
AC50 (D(3) dopamine receptor): > 30 µM | AC50 [1]: > 30 µM | AC50 [2]: > 30 µM | AC50 [3]: > 30 µM | AC50 [4]: > 30 µM

CS(=O)(=O)Nc1ccc([N+](=O)[O-])cc1Oc1ccccc1 [NIMESULIDE]
AC50 [5]: > 30 µM | AC50 (Cannabinoid receptor 1): > 30 µM | AC50 (D(3) dopamine receptor): > 30 µM | AC50 [6]: > 30 µM | AC50 [1]: > 30 µM | AC50 [7]: > 30 µM | AC50 [8]: > 30 µM | AC50 [2]: > 30 µM | AC50 [3]: 26.6 µM

CCCCCCCC/C=C\CCCCCCCC(=O)O [OLEIC ACID]
AC50 (D(3) dopamine receptor): > 30 µM | AC50 [1]: > 30 µM | AC50 [2]: > 30 µM | AC50 [3]: > 30 µM | AC50 [4]: > 30 µM

C#CCN(C)Cc1ccccc1 [PARGYLINE]
AC50 [9]: > 30 µM | AC50 [5]: > 30 µM | AC50 (Cannabinoid receptor 1): > 30 µM | AC50 (D(3) dopamine receptor): > 30 µM | AC50 [6]: > 30 µM | AC50 [1]: > 30 µM | AC50 [8]: > 30 µM | AC50 [2]: > 30 µM | AC50 [3]: > 30 µM | AC50 [4]: > 30 µM

CC1=C(C/C=C(\C)CCC[C@H](C)CCC[C@H](C)CCCC(C)C)C(=O)c2ccccc2C1=O [PHYTONADIONE]
AC50 (D(3) dopamine receptor): > 30 µM | AC50 [1]: > 30 µM | AC50 [2]: 3.44 µM | AC50 [3]: > 30 µM | AC50 [4]: > 30 µM

NC(=O)C1(N2CCCCC2)CCN(CCCC(=O)c2ccc(F)cc2)CC1 [PIPAMPERONE]
AC50 (D(3) dopamine receptor): 1.77 µM | AC50 [1]: > 30 µM | AC50 [2]: > 30 µM | AC50 [3]: 2.92 µM | AC50 [4]: 15.8 µM

COc1cccc2c1C(=O)c1c(O)c3c(c(O)c1C2=O)C[C@@](O)(C(=O)CO)C[C@@H]3O[C@H]1C[C@H](N)[C@H](O[C@@H]2CCCCO2)[C@H](C)O1 [PIRARUBICIN]
AC50 (D(3) dopamine receptor): > 30 µM | AC50 [1]: > 30 µM | AC50 [2]: > 30 µM | AC50 [3]: > 30 µM | AC50 [4]: > 30 µM

CC(C)(Oc1ccc(Cl)cc1)C(=O)NC(=O)NCN1CCOCC1 [PLAFIBRIDE]
AC50 (D(3) dopamine receptor): > 30 µM | AC50 [1]: > 30 µM | AC50 [2]: > 30 µM | AC50 [3]: > 30 µM | AC50 [4]: > 30 µM

CC(C)NC[C@H](O)COc1ccc(O)cc1 [PRENALTEROL]
AC50 (D(3) dopamine receptor): > 30 µM | AC50 [1]: > 30 µM | AC50 [2]: > 30 µM | AC50 [3]: > 30 µM | AC50 [4]: > 30 µM

CN1CCC(N(Cc2cccs2)c2ccccc2)CC1 [THENALIDINE]
AC50 (D(3) dopamine receptor): 4.46 µM | AC50 [1]: > 30 µM | AC50 [2]: > 30 µM | AC50 [3]: 1.61 µM | AC50 [4]: 18 µM

Cc1ccc(C(C)C)c(O)c1 [THYMOL]
AC50 (D(3) dopamine receptor): > 30 µM | AC50 [1]: > 30 µM | AC50 [2]: > 30 µM | AC50 [3]: > 30 µM | AC50 [4]: > 30 µM

CN(C)CCN(Cc1ccccc1)c1ccccn1 [TRIPELENNAMINE]
AC50 [10]: > 30 µM | AC50 [9]: > 10 µM | AC50 [5]: > 10 µM | AC50 [1]: > 30 µM | AC50 [7]: > 10 µM | AC50 [8]: 6.25 µM | AC50 [2]: > 30 µM | AC50 [3]: 0.619 µM | AC50 [4]: 0.395 µM | AC50 (Mu-type opioid receptor): > 30 µM

Cc1c(C)c2c(c(C)c1O)CCC(C)(COc1ccc(CC3SC(=O)NC3=O)cc1)O2 (centres undefined) [TROGLITAZONE]
AC50 [5]: > 30 µM | AC50 (Cannabinoid receptor 1): > 30 µM | AC50 (D(3) dopamine receptor): 6.23 µM | AC50 [6]: 6.8 µM | AC50 [1]: > 30 µM | AC50 [7]: > 30 µM | AC50 [8]: 18 µM | AC50 [2]: 11 µM | AC50 [3]: 8.75 µM | AC50 (Mu-type opioid receptor): > 30 µM

Cc1cccc(C)c1NC(=O)c1cc(S(N)(=O)=O)c(Cl)cc1O [XIPAMIDE]
AC50 (D(3) dopamine receptor): > 30 µM | AC50 [1]: > 30 µM | AC50 [2]: > 30 µM | AC50 [3]: > 30 µM | AC50 [4]: > 30 µM
